In patent publication US9261497B2, “Method of treating cancer with modulators of SCFSkp2” (New York University, priority 2012, dated 2016):

Assays:
T47D = assay: Cell cycle FACS analysis, T47D; assay type: cell-based, human
Protocol: (§1) Whole cell extracts were prepared and immunoblotted as previously described Dorrello et al., “S6K1- and betaTRCP-mediated Degradation of PDCD4 Promotes Protein Translation and Cell Growth,” Science 314:467-471 (2006), which is hereby incorporated by reference in its entirety. For knockdown of Skp2 or p27, shRNAs were induced with 2 ng/ml doxycycline for 48 hours, with the last 16 hours co-treated with 0.1% Vehicle or 10 μM inhibitors as indicated. For cycloheximide chase, cells were pretreated 16 h with 0.1% Vehicle or 10 μM inhibitors, followed by 20 ng/ml cycloheximide (Sigma) and whole cell extracts collected for each time point. 20 ng/ml cycloheximide (Sigma) was added to each plate and whole cell extract was collected for each time point. Scanning densitometry was performed on immunoblots using Image J software. […] 1×10^6 cells were fixed in 70% ethanol for 2 h, treated with 200 μg/ml RNase A (Invitrogen) for 30 minutes, and stained with 20 μg/ml Propidium Iodine (Sigma). All samples were assayed in triplicates. Signal was detected using the Becton Dickson LSRII flow cytometer and cell cycle profiles were analyzed with FloJo.

Ubc3 = target: T1, Ubc3 (Homo sapiens, UniProt P49427); assay: E2 ubiquitin charging (Ubc3~Ub conjugates); assay type: biochemical; conditions: 50 μM inhibitor
T1 construct: purchased Boston Biochem
T1 sequence (P49427 1-236): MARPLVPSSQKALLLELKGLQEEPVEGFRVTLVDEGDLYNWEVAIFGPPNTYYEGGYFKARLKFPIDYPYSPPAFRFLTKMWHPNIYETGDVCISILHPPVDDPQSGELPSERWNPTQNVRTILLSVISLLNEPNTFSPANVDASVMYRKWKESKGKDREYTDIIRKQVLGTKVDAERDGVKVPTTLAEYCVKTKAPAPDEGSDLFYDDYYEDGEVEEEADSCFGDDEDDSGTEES
Protocol: In vitro reconstituted assays were performed as previously described (Dorrello et al., “S6K1- and betaTRCP-mediated Degradation of PDCD4 Promotes Protein Translation and Cell Growth,” Science 314:467-471 (2006), which is hereby incorporated by reference in their entirety) with the exceptions of the use of (1) unlabeled proteins (wild-type and mutant Skp2 and Cks1, p27, Flag-βTrCP, and HA-PDCD4) generated by in vitro transcription-translation (TNT T7 Coupled Reticulocyte Lysate System, Promega); (2) chain elongation with non-methylated ubiquitin; and (3) immunoblotting to detect poly-ubiquitylation. The following reagents were obtained from Boston Biochem: UBE1, His-UbcH3, His-UbcH5c, Ubiquitin, and Ubiquitin Aldehyde. Additional reagents include CDK2/CyclinE1 (Sigma-Aldrich), S6K (Invitrogen), Okadaic acid (Sigma), and DMSO (Sigma-Aldrich). […] Reactions were stopped in nondenaturing 2× Sample Buffer, with the addition of 10% Beta-mercaptoethanol as indicated, and analyzed by Western blotting.

MCF-7 = assay: Cell cycle FACS analysis, MCF-7; assay type: cell-based, human
Protocol: as §1

SCF-βTrCP = assay: β-TrCP PDCD4 in vitro ubiquitylation counter-screen; assay type: biochemical; conditions: 50 μM inhibitor
Protocol: In vitro reconstituted assays were performed as previously described (Dorrello et al., “S6K1- and betaTRCP-mediated Degradation of PDCD4 Promotes Protein Translation and Cell Growth,” Science 314:467-471 (2006), which is hereby incorporated by reference in their entirety) with the exceptions of the use of (1) unlabeled proteins (wild-type and mutant Skp2 and Cks1, p27, Flag-βTrCP, and HA-PDCD4) generated by in vitro transcription-translation (TNT T7 Coupled Reticulocyte Lysate System, Promega); (2) chain elongation with non-methylated ubiquitin; and (3) immunoblotting to detect poly-ubiquitylation. The following reagents were obtained from Boston Biochem: UBE1, His-UbcH3, His-UbcH5c, Ubiquitin, and Ubiquitin Aldehyde. Additional reagents include CDK2/CyclinE1 (Sigma-Aldrich), S6K (Invitrogen), Okadaic acid (Sigma), and DMSO (Sigma-Aldrich). For ubiquitin charging, UBE1 (100 nM) and His-UbcH3 (10 ng/μl) were incubated with ubiquitin (2.5 μg/μl), ATP (2 mM), and 10 μM […] of inhibitors or Vehicle control for 60 min at 30° C. Reactions were stopped in nondenaturing 2× Sample Buffer, with the addition of 10% Beta-mercaptoethanol as indicated, and analyzed by Western blotting.

p27 in ECC-1 cells = assay: p27 immunoblot in ECC-1 cells (whole cell lysates, nuclear and cytoplasmic fractions); conditions: ECC-1; for p27 increase over control at optimal concentration: 10 μM (FIG. 11B); for Nuclear p27 increase over the control in presence of E2: 10 μM compound plus 1 nM E2; for Nuclear p27 increase over the control in presence of E2 / Decrease of cytoplasmic p27 levels: 18 h (FIG. 14C); for p27 protein levels over Vehicle control: 10 μM for 18 h, whole cell lysates (FIG. 11A); for Decrease of cytoplasmic p27 levels: 10 μM; for Increase of nuclear p27 compared to Vehicle control: nuclear fraction (FIG. 11C)
Protocol: The endometrial carcinoma cell line (derived from a well-differentiated endometrioid Type I ECA) ECC-1 cells (ATCC, Manassas, Va.) were plated at a density of 3×10^5/well/6-well plate and grown in DMEM:F12 supplemented with 10% FBS (BioWest, Ocala, Fla.). The cell line was passaged in the laboratory for fewer than 6 months after receipt. […] ECAs were plated at a density of 2.2×10^6 cells/6-well Primaria® plates (BD Biosciences, San Jose, Calif.) in McCoys 5A media without phenol red containing 10% charcoal-stripped FBS, 2 mM L-Glutamine (Invitrogen) and antimycotic antibiotic solution (Mediatech, Hendon, Va.).
For subcellular fractionation, following treatments, cells were separated into nuclear and cytoplasmic fractions using the NE-PER kit (Thermo Scientific), and 10 μg cytoplasmic and nuclear protein fractions were loaded onto SDS-PAGE for immunoblotting. […] The membranes were incubated with peroxidase-conjugated goat anti-rabbit or goat anti-mouse secondary antibodies in TBST (1:2000; Thermo Scientific). […] Protein bands were resolved using the SuperSignal West Dura kit (Thermo Scientific), visualized by exposure to X-ray film (HyBlot; Denville Scientific, Denville, N.J.), and following densitometric scanning (Kodak Logic-100), the protein bands were quantified by normalizing to β-actin and compared to the untreated control, and the values represented by the graphs of relative protein levels compared to actin in each well and shown as % of Vehicle control.

Caspase 3 in ECC-1 cells = assay: ECC-1 apoptosis (Caspase 3 cleavage immunoblot); assay type: cell-based, human; conditions: 10 μM, 18 h
Protocol: Whole cell lysates were prepared in ice cold RIPA buffer (50 mM Tris-HCL, 150 mM NaCl, 0.25% sodium deoxycholate, 1% NP-40 and 1 mM EDTA) containing 1 mM Na3VO4, pH 7.4) and 1× Protease Inhibitor Cocktail (Sigma Chem, St Louis, Mo.). Following freezing and thawing once, and soluble proteins obtained by centrifugation at 14,000×g for 10 min at 4° C. Protein concentrations were quantified (BCA kit, Thermo Scientific, Rockland, Ill.) and 20 μg protein in Laemmli buffer were subjected to SDS-PAGE (12.5% polyacrylamide) and immunoblotted using anti-p27 and anti-Skp2 antibodies to probe protein levels, as described (Lecanda et al., “TGFbeta Prevents Proteasomal Degradation of the Cyclin-dependent Kinase Inhibitor p27kip1 for Cell Cycle Arrest,” Cell Cycle 8:742-756 (2009), which is hereby incorporated by reference in its entirety). For subcellular fractionation, following treatments, cells were separated into nuclear and cytoplasmic fractions using the NE-PER kit (Thermo Scientific), and 10 μg cytoplasmic and nuclear protein fractions were loaded onto SDS-PAGE for immunoblotting. Following protein transfer onto nitrocellulose membranes, the membrane was blocked with 5% non-fat dry milk in TBS containing 0.1% Tween 20 (TBST) for 1 h, incubated overnight with mouse anti-human p27 (1:1000, Clone 57, BD Transduction Labs) or mouse anti-human p45/Skp2 (1:1000, Clone 8D9, Invitrogen, Grand Island, N.Y.) or rabbit anti-human Caspase-3 antibody (1:500, Clone 8G10, Cell Signaling Technology (Danvers, Mass.)). Purity of the subcellular fractions was confirmed using mouse anti-human α-tubulin (1:10,000, Clone B-5-1-2, Sigma) for cytoplasmic or rabbit anti-human Sp1 (1:1000, Clone H-225, Santa Cruz Biotechnology, Santa Cruz, Calif.) for nuclear fractions. The membranes were incubated with peroxidase-conjugated goat anti-rabbit or goat anti-mouse secondary antibodies in TBST (1:2000; Thermo Scientific).

Row | Structure (SMILES) | G1 phase (T47D; 5 μM for 16 hours) | S phase (T47D; 5 μM for 16 hours) | E2 charging (Ubc3~Ub) (Ubc3) | Increase in G2-M phase (MCF-7; 5 μM C1 for 16 hours) | Reduction in G1 phase (MCF-7; 5 μM C1 for 16 hours) | β-TrCP activity (PDCD4 poly-ubiquitylation) (SCF-βTrCP) | Levels of Skp2 (p27 in ECC-1 cells) | p27 increase over control at optimal concentration (p27 in ECC-1 cells) | Nuclear p27 increase over the control in presence of E2 (p27 in ECC-1 cells) | p27 protein levels over Vehicle control (p27 in ECC-1 cells) | Decrease of cytoplasmic p27 levels (p27 in ECC-1 cells) | Increase of nuclear p27 compared to Vehicle control (p27 in ECC-1 cells; 18 h) | Concentration inducing p27 to the same level as the proteasome inhibitor (p27 in ECC-1 cells; 24 hours, compared to 1 μM Lactacystin) | Cytoplasm p27, time course (p27 in ECC-1 cells; by 18 h (FIG. 15A)) | Nuclear p27, time course (p27 in ECC-1 cells; by 18 h (FIG. 15A)) | Cellular phenotype (T47D) | Caspase 3 cleavage (apoptosis) (Caspase 3 in ECC-1 cells) | Cellular phenotype (MCF-7) | Increase of cytoplasm p27 (p27 in ECC-1 cells; 18 h, cytoplasmic fraction (FIG. 11C))
1 | O=C(O)COc1ccc(Br)cc1C=C1SC(=S)N(Cc2cccnc2)C1=O [Compound C1] | an increase in G1 phase | a decrease in S phase | unaffected | 43% | 35% | not blocked | – | – | – | – | – | – | – | – | – | – | – | – | –
2 | COC(=O)C1=C(C)N(c2ccc(Br)cc2)C(=O)C1=Cc1ccccc1O [Compound C2] | – | – | unaffected | – | – | not blocked | do not effect the levels of Skp2 | 2.3 | ~2 fold | increase p27 protein levels | approximately 33% | 1.8 fold | ≤ 0.1 µM | half | doubled | no significant cellular phenotype | activate caspase 3 to a similar extent as the control | no significant cellular phenotype | –
3 | O=C(O)COc1ccc(C=C2SC(=O)N(CC(=O)c3ccc(Cl)cc3)C2=O)cc1 [Compound C16] | – | – | unaffected | – | – | not blocked | – | – | – | increase p27 protein levels | – | 2.2 fold | – | – | – | no significant cellular phenotype | shows cleavage of caspase 3 | no significant cellular phenotype | 2.7 fold
4 | O=C(NN=Cc1cc(Br)cc(Br)c1O)C(=Cc1ccccc1O)NC(=O)c1ccccc1 [Compound C20] | – | – | unaffected | – | – | not blocked | do not effect the levels of Skp2 | 2.2 | ~2 fold | increase p27 protein levels | approximately 33% | 2.2 fold | – | – | – | no significant cellular phenotype | activate caspase 3 to a similar extent as the control | no significant cellular phenotype | –
